What was measured:
CD4+ T-cells [1] = assay: IFN-γ ICS screen of UreB overlapping 18mer peptides on T-cells from adjuvant-vaccinated mice; assay type: cell-based, BALB/c mice; settings: spleens day 10, expanded in vitro, 5 μM peptide 5 hr, ICS flow cytometry; for IFN-γ response of CD4+ T-cells to UreB 18mer peptides, MDP group: T-cells from mice vaccinated with UreB + MDP; for IFN-γ response of CD4+ T-cells to UreB 18mer peptides, MDP group / IFN-γ response of CD4+ T-cells to UreB 18mer peptides, MPLA group / IFN-γ response of CD4+ T-cells to UreB 18mer peptides, CpG group: representative of three independent experiments; for IFN-γ response of CD4+ T-cells to UreB 18mer peptides, MPLA group: T-cells from mice vaccinated with UreB + MPLA; for IFN-γ response of CD4+ T-cells to UreB 18mer peptides, CpG group: T-cells from mice vaccinated with UreB + CpG
Description: (§1) Six- to eight-week-old SPF female BALB/c mice were immunized subcutaneously with 100 μg recombinant H pylori UreB (rUreB, purity >95%) emulsified in adjuvants CpG (20 μg/ mouse), MDP (30 μg/ mouse), and MPLA (10 μg/ mouse). Mice immunized with the same antigen without adjuvants were used as controls. Ten days later, the mice were euthanized with Carbon Dioxide (CO₂), and their spleens were harvested. Antigen-specific T-cells were expanded in vitro as described previously ([Li et al., 2015]). Briefly, the lymphocytes from spleens were isolated using a Ficoll–Hypaque (Dakewe, Shanghai, China) gradient, pulsed with 0.5 μM rUreB protein in the presence of 5 U/mL rmIL-2 (PeproTech, NJ, USA), and in vitro cultured in ‘RF-10’ medium consisting of RPMI 1640 (Gibco, CA, USA) supplemented with 10% fetal calf serum (Gibco), 1% L-glutamine, 1x 2-mercaptoethanol (Gibco), and 100 U/mL penicillin/ streptomycin. On day 5, the live cells were collected using a Ficoll–Hypaque gradient and cultured in a complete medium containing 20 U/mL rmIL-2. Half the medium was replaced when required.
Bulk-cultured T-cells were stimulated with 5 μM peptides for 5 hr in the presence of brefeldin A (BioLegend). The cells were collected and stained with specific antibodies against surface markers. Intracellular cytokine staining was performed after fixation. Cells were acquired using an LSRFortessa Flow Cytometer (BD Biosciences) or a Navios Flow Cytometer (Beckman Coulter, FL, USA). The data were analyzed using FlowJo software (Tree Star, CA, USA).

A20 cells [2] = assay: MHC-II immunopeptidome (LC-MS/MS) of adjuvant-treated APCs; assay type: cell-based, Mus musculus
Description: A20 cells were cultured in T75 cell culture flasks (Corning, NY, USA). The expanded cells were pulsed with H. pylori lysates in combination with adjuvants MPLA, MDP, or CpG for 12 hr, collected, washed twice with sterile PBS, and divided into two fractions. One fraction, approximately 10^7 cells, was used for whole-proteome analysis. The remaining 10^8 cells were lysed in cold lysis buffer (1.0% w/v CHAPS, Protease Inhibitor tablet, and PMSF) for MHC-II complex immunoprecipitation. The cell lysates were centrifuged at 18,000×g for 20 min. The supernatant (containing the MHC–peptide complexes) was transferred into a new 1.5 mL microcentrifuge tube (Corning) containing a mixture of Sepharose CNBr-activated beads (Cytivia, Utah, USA) and 2 mg Anti-Mouse H2-IA^d/IE^d (M5/114) antibody (BioXcell, NH, USA). The immune complexes were captured on the beads by incubating on a rotor at 4℃ for 18 hr. Sequentially, the immune complexes were transferred to a polypropylene column (Bio-Rad Laboratories, Hercules, CA, USA) and washed with 10 mL buffer A (150 mM NaCl, 20 mM Tris, pH 8.0), 10 mL buffer B (400 mM NaCl, 20 mM Tris, pH 8.0), 10 mL buffer A, and 10 mL buffer C (Tris 20 mM, pH 8.0). The MHC-II–peptide complexes were eluted with 300 µL 10% glacial acetic acid (Macklin, Shanghai, China) three times. The eluate was stored at −80℃ until mass spectrometry analysis was performed. […]

A20 cells [3] = assay: Whole-proteome LC-MS/MS of adjuvant-treated APCs, bacterial protein abundance; assay type: cell-based, Mus musculus; settings: A20 cells 12 hr post-adjuvant stimulation with H. pylori antigens
Description: A20 cells were cultured in T75 cell culture flasks (Corning, NY, USA). The expanded cells were pulsed with H. pylori lysates in combination with adjuvants MPLA, MDP, or CpG for 12 hr, collected, washed twice with sterile PBS, and divided into two fractions. One fraction, approximately 10^7 cells, was used for whole-proteome analysis. The remaining 10^8 cells were lysed in cold lysis buffer (1.0% w/v CHAPS, Protease Inhibitor tablet, and PMSF) for MHC-II complex immunoprecipitation. The cell lysates were centrifuged at 18,000×g for 20 min. The supernatant (containing the MHC–peptide complexes) was transferred into a new 1.5 mL microcentrifuge tube (Corning) containing a mixture of Sepharose CNBr-activated beads (Cytivia, Utah, USA) and 2 mg Anti-Mouse H2-IA^d/IE^d (M5/114) antibody (BioXcell, NH, USA). The immune complexes were captured on the beads by incubating on a rotor at 4℃ for 18 hr. Sequentially, the immune complexes were transferred to a polypropylene column (Bio-Rad Laboratories, Hercules, CA, USA) and washed with 10 mL buffer A (150 mM NaCl, 20 mM Tris, pH 8.0), 10 mL buffer B (400 mM NaCl, 20 mM Tris, pH 8.0), 10 mL buffer A, and 10 mL buffer C (Tris 20 mM, pH 8.0). The MHC-II–peptide complexes were eluted with 300 µL 10% glacial acetic acid (Macklin, Shanghai, China) three times. The eluate was stored at −80℃ until mass spectrometry analysis was performed.
Protein aliquots were mixed with 200 μL 8 M urea in Nanosep Centrifugal Devices (PALL) and centrifuged at 12,000×g at 20℃ for 20 min. All the centrifugation steps were performed under the same conditions, allowing for maximal concentration. Then, 200 μL 8 M urea solution with 10 mM DTT was added, and the reduction reaction was performed for 2 hr at 37°C. The solution was removed by centrifugation and 200 μL 8 M urea solution with 50 mM iodoacetamide (IAA) was added. The samples were incubated in the dark for 15 min at room temperature. The ultra-fraction tube was washed with 200 μL 8 M urea three times and 200 μL 25 mM ammonium bicarbonate three times by centrifugation at 12,000×g for 20 min at room temperature. […]

splenocytes = assay: IFN-γ ELISpot of splenocytes from peptide-pool immunized mice; assay type: in vivo; settings: five BALB/c mice immunized with pool of 10 peptides (50 μg each) in CFA; for IFN-γ ELISpot response, day 10 (effective phase): threshold 3x median of OVA peptide
Description: Six- to eight-week-old SPF female BALB/c mice were immunized subcutaneously with a pool of synthetic peptides (50 μg for each peptide) emulsified in Complete Freunds Adjuvant (Sigma-Aldrich). At 10 and 28 days post-vaccination, the mice were euthanized, and the spleens were removed for ELISpot assays.
Splenocytes (500,000 cells/well) were treated with red blood cell lysis buffer and stimulated with 5 μM peptides in triplicate in ELISpot plates (Dakewe Biotech, Shenzhen, China) for 18 hr. IFN-γ secretion was detected using capture and detection antibodies and imaged using an ELISpot & FluoroSpot Reader (Mabtech, Stockholm, Sweden). OVA peptide323–339 (ISQAVHAAHAEINEAGR) and non-stimulated wells were used as negative controls. PMA (BioGems, NJ, USA) was used as a positive control.

MHC-II H2-IA allele = assay: MHC-II competition-binding assay in vitro; settings: competition with 0.1 μM biotin-labeled control peptide, 50 nM purified MHC-II, 37 °C 24 hr, europium fluorescence; eight concentrations, three independent experiments
CD4+ T-cells [4] = assay: IFN-γ ICS of in vitro expanded peptide-specific CD4+ T-cells, peptide pool and titrated peptides; assay type: cell-based, BALB/c mice; settings: titrated peptides, response at 50 μM taken as 100%, n=3, ICS flow cytometry; compared with ureA #2 and ureA #3
Description: as §1
Bulk-cultured T-cells were stimulated with 5 μM peptides for 5 hr in the presence of brefeldin A (BioLegend). The cells were collected and stained with specific antibodies against surface markers. […] The data were analyzed using FlowJo software (Tree Star, CA, USA). […]

Compound: U409–426: UreB overlapping 18mer peptide (YTINPAIAHGISEYVGSV; UniProt P69996 409-426, looked up, fragment)
- IFN-γ response of CD4+ T-cells to UreB 18mer peptides, MDP group (CD4+ T-cells [1]): dominant response

Compound: CC(=O)N[C@@H]1[C@@H](O[C@H](C)C(=O)N[C@@H](C)C(=O)N[C@H](CCC(=O)O)C(N)=O)[C@H](O)[C@@H](CO)O[C@H]1O [MDP]
- Number of MHC peptides identified (A20 cells [2]; A20 cells treated with adjuvant + H. pylori antigens 12 hr, 10^8 cells, MHC-II IP, LC-MS/MS, mean of n=3 biological replicates): 3257
- Effect of adjuvant on peptide repertoires presented by APCs (A20 cells [2]; A20 cells, H. pylori antigens + adjuvant 12 hr, immunopeptidome): not
- % H. pylori: percentage of bacterial protein abundances in the total whole proteome (A20 cells [3]; sample (replicate) 1): 0.95%
- % H. pylori: percentage of bacterial protein abundances in the total whole proteome (A20 cells [3]; sample (replicate) 2): 1.04%
- % H. pylori: percentage of bacterial protein abundances in the total whole proteome (A20 cells [3]; sample (replicate) 3): 1.09%

Compound: U505–522: UreB overlapping 18mer peptide (EELGLERQVLPVKNCRNI; UniProt P69996 505-522, looked up, fragment)
- IFN-γ response of CD4+ T-cells to UreB 18mer peptides, MPLA group (CD4+ T-cells [1]): primarily recognized

Compound: U403–426: UreB region covered by overlapping 18mer peptides (KRYLSKYTINPAIAHGISEYVGSV; UniProt P69996 403-426, looked up, fragment)
- IFN-γ response of CD4+ T-cells to UreB 18mer peptides, CpG group (CD4+ T-cells [1]): dominant response

Compound: U313–330: UreB overlapping 18mer peptide (EHMDMLMVCHHLDKSIKE; UniProt P69996 313-330, looked up, fragment)
- IFN-γ response of CD4+ T-cells to UreB 18mer peptides, CpG group (CD4+ T-cells [1]): dominant response
- IFN-γ response of CD4+ T-cells to UreB 18mer peptides, MPLA group (CD4+ T-cells [1]): primarily recognized

Compound: YVEAVALISAHIMEEAR [ureA #3]
- IFN-γ ELISpot response, day 10 (effective phase) (splenocytes): positive responses
- Binding stability for MHC-II (MHC-II H2-IA allele): highly stable

Compound: KMLELANQIKTNLSAIPQ [hopZ #53]
- IFN-γ ELISpot response, day 10 (effective phase) (splenocytes): positive responses
- Binding stability for MHC-II (MHC-II H2-IA allele): highly stable

Compound: AFIDAEHALDVHYAKR [recA #23]
- IFN-γ ELISpot response, day 28 (memory phase) (splenocytes): not weaker than that of the other peptides
- IFN-γ ELISpot response, day 10 (effective phase) (splenocytes): positive responses
- IFN-γ response of expanded CD4+ T-cells to titrated peptide (CD4+ T-cells [4]): more robust CD4^+ T-cell responses at lower peptide concentrations
- Binding stability for MHC-II (MHC-II H2-IA allele): low-stability

Compound: U481–U504: UreB dominant region covered by overlapping 18mer peptides (HHGKAKYDANITFVSQAAYDKGIK; UniProt P69996 481-504, looked up, fragment)
- IFN-γ response of CD4+ T-cells to UreB 18mer peptides, no-adjuvant group (CD4+ T-cells [1]; T-cells from mice vaccinated with UreB without adjuvant): dominant region

Compound: ASMIHEVGIEAMFPDGTK [ureA #2]
- IFN-γ ELISpot response, day 10 (effective phase) (splenocytes): positive responses
- Binding stability for MHC-II (MHC-II H2-IA allele): highly stable

Compound: U481–498: UreB overlapping 18mer peptide (HHGKAKYDANITFVSQAA; UniProt P69996 481-498, looked up, fragment)
- IFN-γ response of CD4+ T-cells to UreB 18mer peptides, MDP group (CD4+ T-cells [1]): dominant response
